Measurements reported in US11512079B2, “Heterocycle substituted pyridine derivative antifungal agents” (Amplyx Pharmaceuticals, Inc., priority 2017, dated 2022).
Values after ≈ are worked out from the molar mass of the structure shown.

Legend:
Assay type in all cases: cell-based
Candida albicans 90028 = test: In vitro antifungal assay (Example IX), microdilution broth, MIC; details: minimum inhibitory concentration (≥50% inhibition), 35° C., 40-48 h, RPMI1640
Procedure, shortened: (§1)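 CLSI broth microdilution in RPMI1640 with 2.5×10^3 cells/mL and final compound concentrations of 2-0.0019 μg/mL (1% DMSO). C. albicans 90028 plates were incubated at 35° C. for 40-48 h and C. neoformans H99 for 72 h. MIC was read as minimum inhibitory concentration, verified at 600 nm.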

[1] = test system: Cryptococcus neoformans H99; test: as above; details: minimum inhibitory concentration (≥50% inhibition), 35° C., 72 h, RPMI1640
Procedure, shortened: as §1

[2] = test system: Aspergillus fumigatus MYA3626; test: In vitro antifungal assay (Example IX), microdilution broth, MEC; details: minimum effective concentration (shortening of hyphae), 35° C., 40-48 h, RPMI1640
Procedure, shortened: (§2)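 Spore suspensions of A. fumigatus and R. pusillus adjusted to 1-2×10^4 spores/mL in RPMI1640 and exposed to compound dilutions prepared in DMSO, by broth microdilution. MEC taken as the lowest concentration shortening hyphae versus DMSO control wells, read as for echinocandins.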

[3] = test system: Rhizomucor pusillus 46342; test: as above; details: minimum effective concentration (shortening of hyphae), 35° C., 40-48 h, RPMI1640
Procedure, shortened: as §2

Cryptococcus gattii = test: In vitro antifungal assay (Example IX), microdilution broth, MIC; details: minimum inhibitory concentration (≥50% inhibition), 35° C., 72 h (Cryptococcus), RPMI1640
Description: Preparation of Fungal Suspension. C. albicans 90028 and C. neoformans H99 strains were streaked from frozen stocks at −80° C. onto Sabouraud Dextrose Agar (SDA) plates. These were allowed to grow for 24 h (C. albicans) and 48 h (C. neoformans) at 35° C. before using them in the assay. 5-6 individual colonies were picked and diluted into sterile water to obtain a fungal suspension. The cell density of the suspension was determined and the culture diluted with RPMI1640 medium to obtain a fungal suspension of 2.5×10^3 cells/mL. The suspension was used in the MIC measurement as described below.
Preparation of Compound Stocks and Intermediate Dilutions: The compounds were weighed and DMSO was added to prepare a 10 mg/mL stock. The solutions were mixed by vortexing and sonication at 37° C. for 5-10 mins. The resulting solutions were sterile filtered using a PTFE filter, and aliquoted (12 μL or as needed) and stored at −20° C. Intermediate compound dilutions were prepared in sterile polypropylene tubes in 100% DMSO. The compound stock solution was first diluted in DMSO to obtain a concentration of […] to 0.19 μg/mL.
MIC/MEC Measurement: 99 μL 1 of the fungal suspension in RPMI1640 prepared as above was added to each well of a 96-well round bottom assay plate. 1 μL of the intermediate compound dilutions (200-0.19 μg/mL) were added to wells of the plate. This led to a 100-fold dilution of the intermediate dilutions resulting in a final compound concentration of 2-0.0019 μg/mL in the plate. 1 μL of DMSO was added to “No drug” control wells. The solutions were mixed by shaking on a plate shaker for 10 mins and plates incubated at 35° C. for 40-48 h (C. albicans, A. fumigatus, R. pusillus) and 72 h (Cryptococcus). […] This was validated by thorough mixing and reading at 600 nm on a microplate reader. The minimum concentration that led to shortening of hyphae as compared to hyphal growth in DMSO control wells was determined as the minimum effective concentration (MEC) for A. fumigatus and R. pusillus (as read for echinocandins). The use of the MIC and MEC endpoints against yeasts and molds, respectively has been described by Pfaller M A, Duncanson F, Messer S A, Moet G J, Jones R N, Castanheira M. Antimicrob Agents Chemother. 2011. 55(11):5155-8. In vitro activity of a novel broad-spectrum antifungal, E1210, tested against Aspergillus spp. determined by CLSI and EUCAST broth microdilution methods. Results are shown in Table 2, and the letters indicate the following ranges in μg/mL: […]

N#CCc1ccc(Cc2cc(-c3cccnc3N)on2)cc1 [compound 2, 2-(4-((5-(2-aminopyridin-3-yl)isoxazol-3-yl)methyl)phenyl)acetonitrile]
MIC (Candida albicans 90028): > 1 µg/mL | MIC [1]: > 1 µg/mL | minimal effective concentration [2]: 0.1 to 1 µg/mL | minimal effective concentration [3]: > 1 µg/mL

COc1ccc(OCc2ccc(Cc3cc(-c4cccnc4N)on3)cc2)cc1OC [compound 104, 3-(3-(4-((3,4-dimethoxyphenoxy)methyl)benzyl)isoxazol-5-yl)pyridin-2-amine]
MIC (Candida albicans 90028): > 1 µg/mL | MIC [1]: > 1 µg/mL | minimal effective concentration [2]: > 1 µg/mL | minimal effective concentration [3]: > 1 µg/mL

COc1ccc(F)cc1OCc1ccc(Cc2cc(-c3cccnc3N)on2)cc1 [compound 192, 3-(3-(4-((5-fluoro-2-methoxyphenoxy)methyl)benzyl)isoxazol-5-yl)pyridin-2-amine]
MIC (Candida albicans 90028): 0.1 to 1 µg/mL (≈ 0.247 to 2.47 µM) | minimal effective concentration [2]: 0.1 to 1 µg/mL | minimal effective concentration [3]: > 1 µg/mL

Nc1ncccc1-c1cc(Cc2ccc(/C=C/Cc3ccccc3)cc2)no1 [compound 194, (E)-3-(3-(4-(3-phenylprop-1-en-1-yl)benzyl)isoxazol-5-yl)pyridin-2-amine]
MIC (Candida albicans 90028): > 1 µg/mL | minimal effective concentration [2]: 0.1 to 1 µg/mL | minimal effective concentration [3]: > 1 µg/mL

Nc1ncccc1-c1cc(Cc2ccc(OCc3ccnc(Cl)c3F)nc2)no1 [compound 210, 3-(3-((6-((2-chloro-3-fluoropyridin-4-yl)methoxy)pyridin-3-yl)methyl)isoxazol-5-yl)pyridin-2-amine]
MIC (Candida albicans 90028): > 1 µg/mL | minimal effective concentration [2]: > 1 µg/mL | minimal effective concentration [3]: > 1 µg/mL

CS(=O)(=O)Nc1cccc(Cc2ccc(Cc3cc(-c4cccnc4N)on3)cc2)c1 [compound 211, N-(3-(4-((5-(2-aminopyridin-3-yl)isoxazol-3-yl)methyl)benzyl)phenyl)methanesulfonamide]
MIC (Candida albicans 90028): > 1 µg/mL | minimal effective concentration [2]: > 1 µg/mL | minimal effective concentration [3]: > 1 µg/mL

Nc1ncccc1-c1cc(Cc2ccc(OCCCc3ccc(OCc4ccccc4)cc3)nc2)no1 [compound 214, 3-(3-((6-(3-(4-(benzyloxy)phenyl)propoxy)pyridin-3-yl)methyl)isoxazol-5-yl)pyridin-2-amine]
MIC (Candida albicans 90028): > 1 µg/mL | minimal effective concentration [2]: > 1 µg/mL | minimal effective concentration [3]: > 1 µg/mL

Nc1ncccc1-c1cc(Cc2ccc(OCC(c3ccccc3)c3ccccc3)nc2)no1 [compound 215, 3-(3-((6-(2,2-diphenylethoxy)pyridin-3-yl)methyl)isoxazol-5-yl)pyridin-2-amine]
MIC (Candida albicans 90028): > 1 µg/mL | minimal effective concentration [2]: > 1 µg/mL | minimal effective concentration [3]: > 1 µg/mL

Cc1c(OCC(F)(F)F)ccnc1COc1ccc(Cc2cc(-c3cccnc3N)on2)cn1 [compound 217, 3-(3-((6-((3-methyl-4-(2,2,2-trifluoroethoxy)pyridin-2-yl)methoxy)pyridin-3-yl)methyl)isoxazol-5-yl)pyridin-2-amine]
MIC (Candida albicans 90028): > 1 µg/mL | MIC [1]: > 1 µg/mL | minimal effective concentration [2]: > 1 µg/mL | MIC (Cryptococcus gattii): > 1 µg/mL

Nc1ncccc1-c1cc(Cc2ccc(OCc3cc(Cl)nc(Cl)c3)nc2)no1 [compound 219, 3-(3-((6-((2,6-dichloropyridin-4-yl)methoxy)pyridin-3-yl)methyl)isoxazol-5-yl)pyridin-2-amine]
MIC (Candida albicans 90028): > 1 µg/mL | MIC [1]: > 1 µg/mL | minimal effective concentration [2]: 0.1 to 1 µg/mL | MIC (Cryptococcus gattii): > 1 µg/mL

Nc1ncccc1-c1cc(Cc2ccc(N3CCOCC3)nc2)no1 [compound 227, 3-(3-((6-morpholinopyridin-3-yl)methyl)isoxazol-5-yl)pyridin-2-amine]
MIC (Candida albicans 90028): > 1 µg/mL | minimal effective concentration [2]: > 1 µg/mL | minimal effective concentration [3]: > 1 µg/mL

Nc1ncccc1-c1cc(Cc2ccc(S(=O)(=O)N3CCOCC3)cc2)no1 [compound 228, 3-(3-(4-(morpholinosulfonyl)benzyl)isoxazol-5-yl)pyridin-2-amine]
MIC (Candida albicans 90028): > 1 µg/mL | minimal effective concentration [2]: > 1 µg/mL | minimal effective concentration [3]: > 1 µg/mL

Nc1ncccc1-c1cc(Cc2ccc(N3CCCC3c3ccccc3)nc2)no1 (stereo not shown) [compound 229, 3-(3-((6-(2-phenylpyrrolidin-1-yl)pyridin-3-yl)methyl)isoxazol-5-yl)pyridin-2-amine]
MIC (Candida albicans 90028): > 1 µg/mL | minimal effective concentration [2]: > 1 µg/mL | minimal effective concentration [3]: > 1 µg/mL

Nc1ncccc1-c1cc(Cc2ccc(N3CCCCC3)nc2)no1 [compound 230, 3-(3-((6-(piperidin-1-yl)pyridin-3-yl)methyl)isoxazol-5-yl)pyridin-2-amine]
MIC (Candida albicans 90028): 0.1 to 1 µg/mL (≈ 0.298 to 2.98 µM) | minimal effective concentration [2]: 0.1 to 1 µg/mL | minimal effective concentration [3]: > 1 µg/mL

Nc1ncccc1-c1cc(Cc2ccc(/C=C/c3cccc(F)c3)cc2)no1 [compound 233, (E)-3-(3-(4-(3-fluorostyryl)benzyl)isoxazol-5-yl)pyridin-2-amine]
MIC (Candida albicans 90028): > 1 µg/mL | MIC [1]: > 1 µg/mL | minimal effective concentration [2]: 0.1 to 1 µg/mL | MIC (Cryptococcus gattii): > 1 µg/mL

Nc1ncccc1-c1cc(Cc2ccc(Nc3cc(F)cc(F)c3)nc2)no1 [compound 238, 5-((5-(2-aminopyridin-3-yl)isoxazol-3-yl)methyl)-N-(3,5-difluorophenyl)pyridin-2-amine]
MIC (Candida albicans 90028): > 1 µg/mL | MIC [1]: 0.1 to 1 µg/mL (≈ 0.264 to 2.64 µM) | minimal effective concentration [2]: > 1 µg/mL | MIC (Cryptococcus gattii): 0.1 to 1 µg/mL (≈ 0.264 to 2.64 µM)

Nc1ncccc1-c1cc(Cc2cnc(OCC3CC3)c(F)c2)no1 [compound 247, 3-(3-((6-(cyclopropylmethoxy)-5-fluoropyridin-3-yl)methyl)isoxazol-5-yl)pyridin-2-amine]
MIC (Candida albicans 90028): 0.01 to 0.1 µg/mL (≈ 0.0294 to 0.294 µM) | MIC [1]: 0.1 to 1 µg/mL (≈ 0.294 to 2.94 µM) | minimal effective concentration [2]: 0.01 to 0.1 µg/mL | MIC (Cryptococcus gattii): > 1 µg/mL

Nc1ncccc1-c1cc(Cc2cnc(Oc3cc(F)cc(F)c3)nc2)no1 [compound 248, 3-(3-((2-(3,5-difluorophenoxy)pyrimidin-5-yl)methyl)isoxazol-5-yl)pyridin-2-amine]
MIC (Candida albicans 90028): > 1 µg/mL | MIC [1]: > 1 µg/mL | minimal effective concentration [2]: 0.1 to 1 µg/mL | MIC (Cryptococcus gattii): > 1 µg/mL

Nc1ncccc1-c1cc(Cc2cnc(OCc3cccc(F)c3)nc2)no1 [compound 249, 3-(3-((2-((3-fluorobenzyl)oxy)pyrimidin-5-yl)methyl)isoxazol-5-yl)pyridin-2-amine]
MIC (Candida albicans 90028): 0.1 to 1 µg/mL (≈ 0.265 to 2.65 µM) | MIC [1]: 0.1 to 1 µg/mL (≈ 0.265 to 2.65 µM) | minimal effective concentration [2]: 0.01 to 0.1 µg/mL | MIC (Cryptococcus gattii): > 1 µg/mL

Nc1ncccc1-c1cc(Cc2cnc(OCc3cccc(F)c3)c(F)c2)no1 [compound 251, 3-(3-((5-fluoro-6-((3-fluorobenzyl)oxy)pyridin-3-yl)methyl)isoxazol-5-yl)pyridin-2-amine]
MIC (Candida albicans 90028): 0.1 to 1 µg/mL (≈ 0.254 to 2.54 µM) | MIC [1]: 0.1 to 1 µg/mL (≈ 0.254 to 2.54 µM) | minimal effective concentration [2]: 0.01 to 0.1 µg/mL | MIC (Cryptococcus gattii): 0.1 to 1 µg/mL (≈ 0.254 to 2.54 µM)

Nc1ncccc1-c1cc(Cc2cnc(Oc3cc(F)cc(F)c3)c(F)c2)no1 [compound 252, 3-(3-((6-(3,5-difluorophenoxy)-5-fluoropyridin-3-yl)methyl)isoxazol-5-yl)pyridin-2-amine]
MIC (Candida albicans 90028): 0.1 to 1 µg/mL (≈ 0.251 to 2.51 µM) | MIC [1]: 0.1 to 1 µg/mL (≈ 0.251 to 2.51 µM) | minimal effective concentration [2]: 0.1 to 1 µg/mL | MIC (Cryptococcus gattii): 0.1 to 1 µg/mL (≈ 0.251 to 2.51 µM)

Nc1ncccc1-c1cc(Cc2cnc(Oc3ccccc3F)c(F)c2)no1 [compound 254, 3-(3-((5-fluoro-6-(2-fluorophenoxy)pyridin-3-yl)methyl)isoxazol-5-yl)pyridin-2-amine]
MIC (Candida albicans 90028): 0.01 to 0.1 µg/mL (≈ 0.0263 to 0.263 µM) | MIC [1]: 0.1 to 1 µg/mL (≈ 0.263 to 2.63 µM) | minimal effective concentration [2]: 0.01 to 0.1 µg/mL | MIC (Cryptococcus gattii): > 1 µg/mL

Nc1ncccc1-c1cc(Cc2cnc(Oc3ccccc3)c(F)c2)no1 [compound 255, 3-(3-((5-fluoro-6-phenoxypyridin-3-yl)methyl)isoxazol-5-yl)pyridin-2-amine]
MIC (Candida albicans 90028): 0.01 to 0.1 µg/mL (≈ 0.0276 to 0.276 µM) | MIC [1]: 0.1 to 1 µg/mL (≈ 0.276 to 2.76 µM) | minimal effective concentration [2]: 0.01 to 0.1 µg/mL | MIC (Cryptococcus gattii): > 1 µg/mL
